According to the NIST ThermoML archive (doi:10.1021/acs.jced.7b00176):

How the values were obtained:
[1] = Liquid, Vibrating tube method
[2] = xn = mol fraction of the nth substance listed; settings: Liquid, Vibrating tube method, x1 = 1

COCCOCCOC [2,5,8-trioxanonane]
[1]
Settings	mass density [kg/m3]
283.67 K, 40000 kPa	978.49
283.67 K, 60000 kPa	989.12
283.67 K, 80000 kPa	998.75
283.67 K, 100000 kPa	1007.71
283.68 K, 10000 kPa	960.29
283.68 K, 20000 kPa	966.68
283.68 K, 30000 kPa	972.8
283.69 K, 100 kPa	953.48
283.69 K, 1000 kPa	954.15
283.69 K, 5000 kPa	956.94
303.47 K, 100 kPa	933.69
303.47 K, 1000 kPa	934.43
303.48 K, 5000 kPa	937.55
303.48 K, 10000 kPa	941.31
303.49 K, 20000 kPa	948.42
303.49 K, 30000 kPa	955.17
303.49 K, 40000 kPa	961.41
303.49 K, 60000 kPa	973.02
303.5 K, 80000 kPa	983.33
303.5 K, 100000 kPa	992.97
322.62 K, 100 kPa	914.41
322.62 K, 1000 kPa	915.3
322.62 K, 5000 kPa	918.77
322.62 K, 10000 kPa	923.02
322.62 K, 20000 kPa	930.99
322.62 K, 30000 kPa	938.31
322.62 K, 40000 kPa	945.16
322.62 K, 60000 kPa	957.74
322.62 K, 80000 kPa	968.98
322.62 K, 100000 kPa	979.2
342.49 K, 100 kPa	894.03
342.49 K, 1000 kPa	894.98
342.49 K, 5000 kPa	898.96
342.5 K, 10000 kPa	903.66
342.5 K, 20000 kPa	912.57
342.51 K, 30000 kPa	920.68
342.51 K, 40000 kPa	928.18
342.51 K, 60000 kPa	941.77
342.51 K, 80000 kPa	953.82
342.52 K, 100000 kPa	964.68
362.51 K, 100 kPa	873.45
362.51 K, 1000 kPa	874.46
362.51 K, 5000 kPa	879.02
362.52 K, 10000 kPa	884.41
362.52 K, 20000 kPa	894.33
362.52 K, 30000 kPa	903.29
362.52 K, 40000 kPa	911.53
362.53 K, 60000 kPa	926.3
362.53 K, 80000 kPa	939.26
362.53 K, 100000 kPa	950.89

CCCCO [butan-1-ol]
[1]
Settings	mass density [kg/m3]
283.63 K, 80 kPa	817.19
283.63 K, 5000 kPa	820.7
283.64 K, 1000 kPa	817.88
283.64 K, 40000 kPa	842.03
283.64 K, 60000 kPa	852.39
283.64 K, 100000 kPa	870.33
283.65 K, 30000 kPa	836.43
283.65 K, 80000 kPa	861.72
283.66 K, 10000 kPa	824.01
283.66 K, 20000 kPa	830.39
303.45 K, 100 kPa	801.81
303.45 K, 1000 kPa	802.54
303.46 K, 5000 kPa	805.65
303.46 K, 10000 kPa	809.35
303.47 K, 20000 kPa	816.29
303.47 K, 30000 kPa	822.84
303.47 K, 40000 kPa	828.87
303.47 K, 60000 kPa	839.95
303.48 K, 80010 kPa	849.82
303.48 K, 100000 kPa	858.94
323.25 K, 1000 kPa	787.19
323.26 K, 100 kPa	786.36
323.26 K, 5000 kPa	790.63
323.27 K, 10000 kPa	794.68
323.27 K, 20000 kPa	802.33
323.27 K, 30000 kPa	809.41
323.28 K, 40000 kPa	816
323.28 K, 60000 kPa	827.77
323.28 K, 80000 kPa	838.31
323.28 K, 100000 kPa	847.65
343.03 K, 100 kPa	769.54
343.03 K, 1000 kPa	770.45
343.04 K, 5000 kPa	774.32
343.04 K, 10000 kPa	778.88
343.05 K, 20000 kPa	787.37
343.05 K, 30000 kPa	795.06
343.05 K, 40000 kPa	802.13
343.05 K, 60000 kPa	814.83
343.05 K, 80000 kPa	826.08
343.05 K, 100000 kPa	836.2
362.68 K, 100 kPa	752.67
362.68 K, 1000 kPa	753.64
362.68 K, 30000 kPa	781.04
362.69 K, 5000 kPa	758.03
362.69 K, 10000 kPa	763.16
362.69 K, 20000 kPa	772.56
362.7 K, 40000 kPa	788.67
362.7 K, 60000 kPa	802.36
362.71 K, 80000 kPa	814.44
362.71 K, 100000 kPa	825.18

CCCCO [butan-1-ol] + COCCOCCOC
[2]
Settings	mass density [kg/m3]
283.63 K, 80 kPa	817.19
283.63 K, 5000 kPa	820.7
283.64 K, 1000 kPa	817.88
283.64 K, 40000 kPa	842.03
283.64 K, 60000 kPa	852.39
283.64 K, 100000 kPa	870.33
283.65 K, 30000 kPa	836.43
283.65 K, 80000 kPa	861.72
283.66 K, 10000 kPa	824.01
283.66 K, 20000 kPa	830.39
303.45 K, 100 kPa	801.81
303.45 K, 1000 kPa	802.54
303.46 K, 5000 kPa	805.65
303.46 K, 10000 kPa	809.35
303.47 K, 20000 kPa	816.29
303.47 K, 30000 kPa	822.84
303.47 K, 40000 kPa	828.87
303.47 K, 60000 kPa	839.95
303.48 K, 80010 kPa	849.82
303.48 K, 100000 kPa	858.94
323.25 K, 1000 kPa	787.19
323.26 K, 100 kPa	786.36
323.26 K, 5000 kPa	790.63
323.27 K, 10000 kPa	794.68
323.27 K, 20000 kPa	802.33
323.27 K, 30000 kPa	809.41
323.28 K, 40000 kPa	816
323.28 K, 60000 kPa	827.77
323.28 K, 80000 kPa	838.31
323.28 K, 100000 kPa	847.65
343.03 K, 100 kPa	769.54
343.03 K, 1000 kPa	770.45
343.04 K, 5000 kPa	774.32
343.04 K, 10000 kPa	778.88
343.05 K, 20000 kPa	787.37
343.05 K, 30000 kPa	795.06
343.05 K, 40000 kPa	802.13
343.05 K, 60000 kPa	814.83
343.05 K, 80000 kPa	826.08
343.05 K, 100000 kPa	836.2
362.68 K, 100 kPa	752.67
362.68 K, 1000 kPa	753.64
362.68 K, 30000 kPa	781.04
362.69 K, 5000 kPa	758.03
362.69 K, 10000 kPa	763.16
362.69 K, 20000 kPa	772.56
362.7 K, 40000 kPa	788.67
362.7 K, 60000 kPa	802.36
362.71 K, 80000 kPa	814.44
362.71 K, 100000 kPa	825.18
